Assay results as given in PubChem BioAssay (NCI).
“And” between values parts separate entries of the source, which are not always exact repeats. Equal entries are not always repeated.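 Five concentrations, 48 hours, 96-well plates. Here, GI50 denotes the concentration required for 50% inhibition of growth. TGI: concentration producing complete growth inhibition.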

Tests used:
Test in all cases: NCI anticancer screen, dose series, 48 h
UO-31 renal = test system: UO-31 renal
MOLT-4 leukemia = test system: MOLT-4 leukemia
NCI-H460 lung = test system: NCI-H460 lung
EKVX NSCLC = test system: EKVX NSCLC
SF-268 CNS = test system: SF-268 CNS
NCI/ADR-RES ovarian = test system: NCI/ADR-RES ovarian
SK-MEL-28 melanoma = test system: SK-MEL-28 melanoma
SNB-19 CNS = test system: SNB-19 CNS
OVCAR-8 ovarian = test system: OVCAR-8 ovarian
SF-295 CNS = test system: SF-295 CNS

Structure (SMILES) | GI50 (UO-31 renal) | TGI (UO-31 renal) | GI50 (MOLT-4 leukemia) | TGI (MOLT-4 leukemia) | GI50 (NCI-H460 lung) | TGI (NCI-H460 lung) | GI50 (EKVX NSCLC) | TGI (EKVX NSCLC) | GI50 (SF-268 CNS) | TGI (SF-268 CNS) | GI50 (NCI/ADR-RES ovarian) | TGI (NCI/ADR-RES ovarian) | GI50 (SK-MEL-28 melanoma) | TGI (SK-MEL-28 melanoma) | GI50 (SNB-19 CNS) | TGI (SNB-19 CNS) | GI50 (OVCAR-8 ovarian) | TGI (OVCAR-8 ovarian) | GI50 (SF-295 CNS) | TGI (SF-295 CNS)
COC(=O)[C@]12CC[C@@H](C)[C@H](C)[C@@H]1C1=CC[C@@H]3[C@@]4(C)C(C=O)=C[C@@](C)(COS(C)(=O)=O)C4[C@H](O)C[C@@]3(C)[C@]1(C)CC2 (stereo partly specified) | 1.04 µM | 2.35 µM | 0.313 µM | 1.05 µM | 2.15 µM | 4.93 µM | 2.14 µM | 6.28 µM | 2 µM | 4.82 µM | 2.03 µM | 5.3 µM | 2.15 µM | 5.05 µM | 2.47 µM | 8.44 µM | 2.08 µM | 5.71 µM | 1.31 µM | 2.77 µM
Cc1cc(C)c(S(=O)(=O)N(CCc2cccc(Br)c2)Cc2ccc(-c3cccc(S(C)(=O)=O)c3)cc2)c(C)c1 | > 100 µM | > 100 µM | > 100 µM | > 100 µM | > 100 µM | > 100 µM | > 100 µM | > 100 µM | > 100 µM | > 100 µM | > 100 µM | > 100 µM | > 100 µM | > 100 µM | > 100 µM | > 100 µM | > 100 µM | > 100 µM | > 100 µM | > 100 µM
COc1cccc(N=N/C(=N\NC(=O)c2cc(Br)ccc2O)c2ccc(N(CCC#N)CCC#N)cc2OC)c1 | 68 µg/mL | > 150 µg/mL | 54.7 µg/mL | > 150 µg/mL | 24.9 µg/mL | 82.7 µg/mL | 99.9 µg/mL | > 150 µg/mL | 21.9 µg/mL | 122 µg/mL | 120 µg/mL | > 150 µg/mL | 62.7 µg/mL | > 150 µg/mL | 68.9 µg/mL | > 150 µg/mL | 41.6 µg/mL | > 150 µg/mL | 52.6 µg/mL | > 150 µg/mL
Cc1ncc(C(=O)Nc2ccc(CN3CCN(C)CC3)c(C(F)(F)F)c2)cc1C#Cc1c(N)ncc2ccccc12 | 0.46 µM | 1.27 µM | 0.228 µM | 0.836 µM | 0.447 µM | 0.952 µM | 0.458 µM | 0.906 µM | 0.448 µM | 1.09 µM | 0.67 µM | 1.54 µM | 0.411 µM | 0.889 µM | 0.591 µM | 1.06 µM | 0.566 µM | 1.28 µM | 0.568 µM | 1.14 µM
Clc1cc(-c2ccccc2)nc2ccccc12 |  | > 100 µM |  | 54.6 µM |  | > 100 µM |  | > 100 µM |  | > 100 µM |  | > 100 µM |  | > 100 µM |  | > 100 µM |  | > 100 µM |  | > 100 µM
COc1ccc2c(c1)c(-c1ccc(-c3cn(C)c4ccc(OC)cc34)[nH]1)cn2C | 1.42 µM | 2.83 µM | 4.13 µM | 29.7 µM | 4.09 µM | 19.5 µM | 1.73 µM | 3.74 µM | 3.45 µM | 18.1 µM | 3.39 µM | 20 µM | 3.18 µM | 12.4 µM | 3.34 µM | 14.4 µM | 2.71 µM | 12.2 µM | 4.59 µM | 45.7 µM
Cc1nc2c(N3CCCC3)nc(N3CCNCC3)nc2nc1NCc1ccccc1 | 1.48 µM | 6.06 µM and 6.39 µM | 3.34 µM | 15.1 µM and > 21.2 µM | 5.97 µM | 13.3 µM and 13.4 µM | 5.46 µM | 10.6 µM and 20.8 µM | 5.75 µM | 12.2 µM and 15.1 µM | 6.84 µM | 13.6 µM and 29 µM |  | 3.75 µM |  | 10.6 µM and 16.3 µM | 5.73 µM | 11 µM and 14.5 µM | 5.81 µM | 11.3 µM and 5.02 µM
Clc1ccc(CNc2nccc(-c3cnn4ncccc34)n2)cc1 | 6.75 µM | > 19.5 µM | 8.16 µM | > 25 µM | 7.92 µM | > 25 µM | 5.54 µM | > 19.9 µM | 7.25 µM | > 22.7 µM | 6.75 µM | > 25 µM | 5.64 µM | 17.5 µM | 9.73 µM | > 25 µM | 6.63 µM | > 25 µM | 5.36 µM | > 18.2 µM
NC(=O)c1ccccc1NC(=O)c1ccccc1Cl | > 100 µM | > 100 µM | > 100 µM | > 100 µM | > 100 µM | > 100 µM | > 100 µM | > 100 µM | > 100 µM | > 100 µM | > 100 µM | > 100 µM | > 100 µM | > 100 µM | > 100 µM | > 100 µM | > 100 µM | > 100 µM | > 100 µM | > 100 µM
Cc1ccc2nc(-c3ccc(N)c4ccccc34)[nH]c2c1 | 0.437 µM | 36.4 µM | 1.36 µM | 17.3 µM | 3.97 µM |  | 0.185 µM | > 71.5 µM |  | > 31.6 µM | 0.0835 µM | 3.53 µM | 3.38 µM | > 54.1 µM | 0.721 µM | > 44.7 µM | 1.31 µM | 16.9 µM | 0.716 µM | 9.53 µM
Nc1cc(S(N)(=O)=O)ccc1SSc1ccc(S(N)(=O)=O)cc1N |  | > 100 µM |  | > 100 µM |  | > 100 µM |  | > 100 µM |  | > 100 µM |  | > 100 µM |  | > 100 µM |  | > 100 µM |  | > 100 µM |  | > 100 µM
Nc1ccc(C(OC(=O)c2cc3ccccc3c(Cc3c(O)c(C(=O)OC(c4ccc(N)cc4)(c4ccc(N)cc4)c4ccc(N)cc4)cc4ccccc34)c2O)(c2ccc(N)cc2)c2ccc(N)cc2)cc1 | 3.66 µM | 63.4 µM | 4.33 µM | 86.1 µM | 0.728 µM | 7.24 µM | 2.37 µM | > 100 µM | 0.471 µM | 18.7 µM | 15.5 µM | > 100 µM | 3.49 µM | 16.4 µM | 0.444 µM | 20.7 µM | 0.388 µM | 36.6 µM | 0.475 µM | > 100 µM
O=C(CNc1ccc2c(=S)c3ccccc3[nH]c2c1)Nc1ccccc1-c1ccccc1NC(=O)CNc1ccc2c(=S)c3ccccc3[nH]c2c1 |  | 31.4 µM |  | 46.7 µM |  | 36.9 µM |  | 65.6 µM |  | 52.8 µM |  | > 63 µM |  | 41.2 µM |  | 41 µM |  | 55.7 µM |  | 50.8 µM
c1ccc(B2OCC(C3OB(c4ccccc4)OC4COB(c5ccccc5)OC43)O2)cc1 (stereo unspecified) |  | > 100 µM |  | > 100 µM |  | > 100 µM |  | > 100 µM |  | > 100 µM |  | > 100 µM |  | > 100 µM |  | > 100 µM |  | > 100 µM |  | > 100 µM
